Laboratory results as given in patent US8835392B2, “Mimetic peptides and the use thereof in the form of 20S, 26S and immunoproteasome inhibitors” (Technische Universität, priority 2005, dated 2014).
“Also recorded” adds a separate entry of the source. Where a SMILES comes first, the peptide text is derived from it. The star is where a group is joined. Cbz = O=C(OCc1ccccc1)*; Boc = CC(C)(C)OC(=O)*; OtBu = CC(C)(C)O*

Assays:
[1] = molecular target: T1, 20S proteasome β5 chymotrypsin-like activity (Suc-LLVY-AMC) (Homo sapiens, UniProt P20618+P28074); assay: Protease assay, chymotrypsin-like activity of isolated 20S proteasomes (LLVY substrate); format: biochemical; conditions: isolated 20S proteasome; LLVY-MCA 50 μM; 15 min pre-incubation; read-out: IC50 β5 Chymotrypsin-like (Y)
T1 construct: Proteasomes were isolated from red blood cells; from tissue; host or cells: red blood cells
Protocol: (§1) Proteasomes were isolated from red blood cells. Cells were lysed with DTT (1 mM), and the stroma-free supernatant was loaded on DEAE-sepharose (Toyopearls). Proteasome was eluted with an NaCl-gradient in TEAD (20 mM TrisCl pH 7.4, 1 mM EDTA, 1 mM azide, 1 mM DTT) of 100 to 300 mM NaCl. Proteasome was concentrated using ammonium sulfate-precipitation (between 40 and 70% saturation) and was separated in a 10-40% sucrose-gradient through centrifugation at 40.000 rpm for 16 hours (SW40; L7, Beckman & Coulter). Finally, the proteasomes were purified on a MonoQ-column and eluted with an NaCl-gradient at about 280 mM NaCl. The fractions containing purified proteasome were dialysed against 50 mM NaCl in TEAD and stored on ice. The purity was determined using SDS-PAGE.
(§2) Suc-LLVY-AMC, Z-VGR-AMC and LLE-AMC (BACHEM, Calbiochem) was used, in order to determine the chymotrypsin-like, trypsin-like or caspase-like (post-acidic)-activities of the proteasome. Substrate was incubated with proteasome at 37° C. in assay-buffer (20 mM Tris/Cl, pH 7.2, 1 mM EDTA, 1 mM DTT) for one hour. 100 ng proteasome was pre-incubated with 0.01-10 μM of the inhibitor for […]. The reaction was started by the addition of substrate (50 μM). The AMC as released was detected using fluorescence emission at 460 nm (excitation at 390 nm) using a TECAN-fluorimeter. The activity was calculated in fluorescence-units. The inhibition is depicted by IC50-values.
The chymotrypsin-like (Suc-LLVY-AMC), the trypsin-like (Bz-VGR-AMC), and the caspase-like (Z-LLE-AMC)-activities of 20S proteasomes were determined following incubation for one hour at 37° C.
(§3) The IC50-values form the inhibition of the proteasome were calculated at increasing concentrations of the inhibitor. The samples were pre-incubated for 15 min in ice. The assay was started through the addition of 50 μM of one of the following fluorogenic peptide substrates:
(§4) The release of MCA was determined at 460 nm emission (excitation 390 nm). The IC50-values as calculated for MG132 served as controls.

[2] = tested on: caspase 3/7 activation in HeLa-cells; assay: Apoptosis-assay, caspase 3/7-activity (Apo-One); format: cell-based; conditions: 1 μM, 20 hours
Protocol: HeLa-cells that were cultivated for 20 hours in the presence of the given inhibitor, were subsequently incubated for 2 hours with caspase-substrate (Apo-One; Promega). The activation of caspases 3/7 was measured at 538 nm (excitation at 485 nm). Treatment of the cells with TNFα or with MG132 served as control.
For this, 10,000 HeLa-cells pro well were seeded in a 96-well-plate, and co-cultivated for 20 hours with 1 μM of the inhibitors 7, 8, 11, 13-16, 18, 20-23 and 25-28. The induction of apoptosis was determined by measuring of the caspase 3/7-activity (Apo-One®-Assay, Promega).

[3] = molecular target: T2, 20S proteasome β1 caspase-like activity (LLE-MCA) (Homo sapiens, UniProt P28072+Q99436); assay: Protease assay, caspase-like activity of isolated 20S proteasomes; format: biochemical; conditions: isolated 20S proteasome; LLE-MCA 50 μM; 15 min pre-incubation; read-out: IC50 β1 Caspase-like (E)
T2 construct: Proteasomes were isolated from red blood cells; from tissue; host or cells: red blood cells
Protocol: as §1, §2
(§5) The effects thereof were compared with the one of the commonly used proteasomal inhibitor 3 (MG132). The chymotrypsin-like (Suc-LLVY-AMC), the trypsin-like (Bz-VGR-AMC), and the caspase-like (Z-LLE-AMC)-activities of 20S proteasomes were determined following incubation for one hour at 37° C.
as §3, §4

20S proteasome = tested on: T3, 20S proteasome; assay: Inhibition of the different proteasomal activities, summary statements; format: biochemical; conditions: isolated proteasomes, specific substrates
T3 construct: Proteasomes were isolated from red blood cells; from tissue; host or cells: red blood cells
Protocol: The specific inhibition of a single catalytic site is of specific interest for the development of drugs. Thus, the inhibition of the different proteasomal activities of the proteasome was analysed (see also example 6). The different cleavage-preferences of the proteasome were determined by the specific substrate for the hydrophobic (chymotrypsin-like), the trypsine-like and the caspase-like activities of isolated proteasomes.
as §2, §5

[4] = molecular target: T4, proteasomal activity in HeLa-cells (Homo sapiens, UniProt P20618+P28074); assay: Intracellular inhibition of proteasomes in cultivated HeLa-cells; format: cell-based
T4 construct: endogenous in cells; host or cells: HeLa
Protocol: A, HeLa-cells were cultivated were 24 hours in the presence of the inhibitor. The protein concentration was determined in accordance with the cellular lysis according to Bradford in order to normalise the proteasomal activities to the different amounts of cells. Subsequently Complete (Roche) was added to all lysates, and the proteasomal activity was determined through the hydrolysis of Suc-LLVY-AMC. B, HeLa-cells was incubated with 1 μM of compound 15 for 2, 4, 6 and 24 hours. Cells were lysed, and proteins were separated through SDS-PAGE on a 10% gel, blotted to a PVDF-membrane. The accumulation of the poly-ubiquitinylated proteins was detected in a Western blot by an anti-ubiquitine-antibody (DAKO). C, HeLa-Cells were treated with increasing concentrations of the inhibitor 15, 25, 26, 27, and 28 for 24 hours (lane 1: without inhibitor; lane 2: 10 nM; lane 3: 100 nM and lane 4: 1 μM of the given inhibitor). Cells were lysed, proteins were separated on 15% gels, and the accumulation of the poly-ubiquitinylated proteins was controlled through Western blot.
HeLa-Cells were cultivated in RPMI, supplemented with 10% FCS and penicillin/streptomycin, at 5% CO2. Inhibitors were administered from 100×-stock solutions (in DMSO) at the final concentrations as indicated, and incubated with the cells for at least 20 hours.
Cultivated cells (HeLa) were harvested lysed and with 0.1% NP40 in TEAD in the presence of the commercially available protease-inhibitor-mixture Complete (Roche). The proteasomal activity was measured in 10 μl of the lysate using Suc-LLVY-AMC as a substrate. The protein content was quantified by means of Bradford (Protein assay; BioRad).
An application on cell cultures or animals requires that the concentrations of the inhibitors are chose as low as required. The specific proteasomal activity was reduced to a value of below 50% in cells that were treated with 1 μM of the compounds 15, 22, 25, 26, or 28, respectively (FIG. 6A).

[5] = molecular target: T5, 20S proteasome β5 chymotrypsin-like activity (GLL-MCA) (Homo sapiens, UniProt P20618+P28074); assay: Protease assay, chymotrypsin-like activity of isolated 20S proteasomes (GLL substrate); format: biochemical; conditions: isolated 20S proteasome; GLL-MCA 50 μM; 15 min pre-incubation; read-out: IC50 β5 Chym.-like (L)
T5 construct: Proteasomes were isolated from red blood cells; from tissue; host or cells: red blood cells
Protocol: as §1, §2, §3, §4

[6] = molecular target: T6, 20S proteasome β2 trypsin-like activity (VGR-MCA) (Homo sapiens, UniProt P49720+Q99436); assay: Protease assay, trypsin-like activity of isolated 20S proteasomes; format: biochemical; conditions: isolated 20S proteasome; VGR-MCA 50 μM; 15 min pre-incubation; read-out: IC50 β2 Trypsin-like (R)
T6 construct: Proteasomes were isolated from red blood cells; from tissue; host or cells: red blood cells
Protocol: as §1, §2, §5, §3, §4

[7] = tested on: Human melanoma cells (MeWo); assay: Cell cycle arrest in MeWo cells, propidium iodide FACS; format: cell-based; conditions: 24 hours
Protocol: (§6) A, Human melanoma cells (MeWo) were treated with increasing concentrations of the compounds 15 or 3 (MG132) for 72 hours. The viability of the cells after the treatment with compound 15 (-♦-) and with MG132 (-□-) was detected by a crystal-violet-staining. B and C, MeWo cells were co-cultivated with the compounds 15 and 3 (MG132) for 24 hours. The cells were subsequently fixed in 70% ethanol, and treated with RNAse A. The DNA was stained with propidium iodide (5 μg/ml), and analysed by means of FACS (FACS Calibur flow cytometer; Beckton Dickinson). The statistical significance was detected by the chi-square-test. The relative distribution of the cells that were present in the G1-(black), in the S-(white) or in the G2 phase (hatched) of the cellular cycle is shown for both compounds as examined (15 in B and MG132 in C).
Human melanoma cells (MeWo) were with the compounds 15 and 3 (MG132) for 24 hours co-cultivated. The cells were washed with PBS, in 70% ethanol fixed and subsequently treated with RNAse A. The DNA was stained with propidium iodide (5 μg/ml) and analysed by means of flow-cytometry (FACS Calibur flow cytometer; Beckton Dickinson). The relative dispersion of the cells that were present in different phases of the cell cycle, could thus be detected. […] The statistical significance was detected by the Chi-square test.

Fibroblasts = assay: Viability of fibroblasts (control); format: cell-based; conditions: Fibroblast, identical conditions (72 h), read-out: concentration for 50% reduction of the viability
[8] = tested on: Human melanoma cells (MeWo); assay: Viability of human melanoma cells (MeWo), crystal violet-staining; format: cell-based; conditions: Homo sapiens, 72 h, read-out: concentration at rate of survival of 50% of the cells
Protocol: as §6
Human melanoma cells (MeWo) were incubated for 72 h with different concentrations of the inhibitor 15 and 28, and the viability of the cells was determined by means of crystal violet-staining (FIG. 8).

`CC(C)C[C@H](NC(=O)OCc1ccccc1)C(=O)N[C@@H](CC(C)C)C(=O)N[C@@H](CC(C)C)C(=O)C(=O)NCc1ccccc1` [Compound 26] was tested, and the IC50 [1] was 441 nM, the “induction of apoptosis (activation of caspase 3 and 7)” value [2] was “beginning apoptosis; also recorded: strong induction of apoptosis” and the IC50 [3] was 1720 nM. For the same compound, the “which proteasomal activities are inhibited (site selectivity)” value (20S proteasome) was “inhibited the chymotryptic and the caspase-like sites”, the membrane-permeation ([4]; cultivated cells) was “membrane-permeation” and the “stability during the incubation periods” value ([4]; cultivated cells) was “sufficient stability”. The “proteasomal activity reduced to” value ([4]; cultivated cells, remaining activity) was 10%.

`CC(C)C[C@@H](C=O)NC(=O)[C@H](CC(=O)O)NC(=O)[C@@H](N)CC(C)C` [Compound 14] (H-Leu-Asp-Leu-aldehyde) was tested, and the IC50 [1] was greater than 10000 nM, the IC50 [5] was greater than 10000 nM and the IC50 [6] was greater than 10000 nM. For the same compound, the IC50 [3] was greater than 10000 nM.

With `CC(C)C[C@@H](C=O)NC(=O)[C@H](CC(C)C)NC(=O)[C@H](CC(C)C)NC(=O)OCc1ccccc1` [Compound 3, reference compound] (Cbz-Leu-Leu-Leu-aldehyde) the “concentration giving arrest of the cell cycle in the G2 phase” value [7] was 100 nM, the IC50 (Fibroblasts) was 500 to 1000 nM and the IC50 [6] was 9220 nM. It also gave an IC50 [3] of 2290 nM and an IC50 [8] of 35 nM.

`CC(C)C[C@@H](C=O)NC(=O)[C@H](CC(=O)OC(C)(C)C)NC(=O)[C@H](CC(C)C)NC(=O)OC(C)(C)C` [Compound 13] (Boc-Leu-Asp(OtBu)-Leu-aldehyde) was tested, and the IC50 [5] was 102 nM, the IC50 [3] was 98 nM and the “which proteasomal activities are inhibited (site selectivity)” value (20S proteasome) was “inhibited all of the proteasomal hydrolytic activities”. The “reduction of the specific proteasomal activity in cells” value ([4]; HeLa cells, 1 μM) was “markedly reduction”.
